# Measurements from ChEMBL document CHEMBL4402510, “Caprazamycins: Promising lead structures acting on a novel antibacterial target MraY” (Eur J Med Chem, 2019).
# Columns and labels:
# [1] = system: Staphylococcus aureus; assay: Antibacterial activity against Staphylococcus aureus FDA 209P; type: functional
# [2] = system: Mycobacterium tuberculosis; assay: Antibacterial activity against Mycobacterium tuberculosis Kurono; type: functional
# [3] = system: Mycolicibacterium smegmatis; assay: Antibacterial activity against Mycobacterium smegmatis ATCC 607; type: functional
# [4] = system: Mycobacterium avium subsp. paratuberculosis; assay: Antibacterial activity against Mycobacterium avium subsp. paratuberculosis ATCC 43015; type: functional
# [5] = system: Mycobacterium tuberculosis; assay: Antibacterial activity against Mycobacterium tuberculosis JCM 6384; type: functional
# [6] = system: Mycobacterium tuberculosis; assay: Antibacterial activity against Mycobacterium tuberculosis H37Rv; type: functional
# [7] = system: Bacillus subtilis; assay: Antibacterial activity against Bacillus subtilis PCI 219; type: functional
# [8] = system: Mycolicibacterium phlei; assay: Antibacterial activity against Mycobacterium phlei; type: functional
# [9] = system: Staphylococcus aureus; assay: Antibacterial activity against methicillin resistant Staphylococcus aureus MS16526; type: functional
# [10] = Antibacterial activity against Mycobacterium avium subsp. avium ATCC 25291; type: functional
# [11] = system: Staphylococcus aureus; assay: Antibacterial activity against methicillin resistant Staphylococcus aureus No. 5; type: functional
# [12] = system: Mycolicibacterium vaccae; assay: Antibacterial activity against Mycobacterium vaccae ATCC 15483; type: functional
# [13] = system: Escherichia coli; assay: Antibacterial activity against Escherichia coli expressing MraY; type: functional, organism-based
# [14] = system: Escherichia coli; assay: Antibacterial activity against Escherichia coli K-12; type: functional
SMILES,MIC [1],MIC [2],MIC [3],MIC [4],MIC [5],MIC [6],MIC [7],MIC [8],MIC [9],MIC [10],MIC [11],MIC [12],MIC50 [13],MIC [14],IC50 [13]
CCCCCCCc1ccc(NC(=O)C2=CCN(C)[C@@H]([C@H](O[C@@H]3O[C@H](CN)[C@@H](O)[C@H]3O)[C@H]3O[C@@H](n4ccc(=O)[nH]c4=O)[C@H](O)[C@@H]3O)C(=O)N2C)cc1,12.5 µg/mL,0.78 µg/mL,< 0.2 µg/mL,0.05 µg/mL,0.1 µg/mL,0.78 µg/mL,6.25 µg/mL,25 µg/mL,50 µg/mL,1.56 µg/mL,< 0.2 µg/mL,1.56 µg/mL,–,–,–
CCCCCCCCCCCCCCCC(=O)O[C@H]1CN(C)[C@@H]([C@@H](C)O[C@@H]2O[C@H](CN)[C@@H](O)[C@H]2O)C(=O)N(C)[C@@H]1C(=O)O,–,–,–,–,–,–,–,–,–,–,–,–,> 100 µg/mL,–,–
CCCCCCCCCCCCCCc1ccc(NC(=O)C2=CCN(C)[C@@H]([C@H](O[C@@H]3O[C@H](CN)[C@@H](O)[C@H]3O)[C@H]3O[C@@H](n4ccc(=O)[nH]c4=O)[C@H](O)[C@@H]3O)C(=O)N2C)cc1,12.5 µg/mL,3.13 µg/mL,6.25 µg/mL,0.39 µg/mL,0.78 µg/mL,3.13 µg/mL,> 100 µg/mL,3.13 µg/mL,0.39 µg/mL,6.25 µg/mL,12.5 µg/mL,6.25 µg/mL,–,> 100 µg/mL,–
NC[C@H]1O[C@@H](OC[C@H]2O[C@@H](n3ccc(=O)[nH]c3=O)C[C@@H]2O)[C@H](O)[C@@H]1O,–,–,–,–,–,–,–,–,–,–,–,–,–,–,80 µM
CCCCCCc1ccc(NC(=O)C2=CCN(C)[C@@H]([C@H](O[C@@H]3O[C@H](CN)[C@@H](O)[C@H]3O)[C@H]3O[C@@H](n4ccc(=O)[nH]c4=O)[C@H](O)[C@@H]3O)C(=O)N2C)cc1,> 100 µg/mL,0.78 µg/mL,1.56 µg/mL,0.78 µg/mL,6.25 µg/mL,0.78 µg/mL,–,0.39 µg/mL,–,0.2 µg/mL,12.5 µg/mL,12.5 µg/mL,–,–,–
CCCCCCCCCCCCCCCCCNC(=O)C1=CCN(C)[C@@H]([C@H](O[C@@H]2O[C@H](CN)[C@@H](O)[C@H]2O)[C@H]2O[C@@H](n3ccc(=O)[nH]c3=O)[C@H](O)[C@@H]2O)C(=O)N1C,–,6.25 µg/mL,1.56 µg/mL,6.25 µg/mL,6.25 µg/mL,3.13 µg/mL,–,> 100 µg/mL,–,1.56 µg/mL,–,> 100 µg/mL,–,–,–
CC(C)NC[C@H]1O[C@@H](OC[C@H]2O[C@@H](n3ccc(=O)[nH]c3=O)[C@H](O)[C@@H]2O)[C@H](O)[C@@H]1O,–,–,–,–,–,–,–,–,–,–,–,–,–,–,180 µM
CN(C)C[C@H]1O[C@@H](OC[C@H]2O[C@@H](n3ccc(=O)[nH]c3=O)[C@H](O)[C@@H]2O)[C@H](O)[C@@H]1O,–,–,–,–,–,–,–,–,–,–,–,–,–,–,> 1000 µM
O=c1ccn([C@@H]2O[C@H](CO[C@@H]3O[C@H](CO)[C@@H](O)[C@H]3O)[C@@H](O)[C@H]2O)c(=O)[nH]1,–,–,–,–,–,–,–,–,–,–,–,–,–,–,> 1000 µM
NC[C@H]1O[C@@H](OC[C@@H]2C[C@@H](O)[C@H](n3ccc(=O)[nH]c3=O)O2)[C@H](O)[C@@H]1O,–,–,–,–,–,–,–,–,–,–,–,–,–,–,10 µM
NC[C@H]1O[C@@H](O[C@H](CO)[C@H]2O[C@@H](n3ccc(=O)[nH]c3=O)[C@H](O)[C@@H]2O)[C@H](O)[C@@H]1O,–,–,–,–,–,–,–,–,–,–,–,–,–,–,425 µM
NC[C@H]1O[C@@H](OC[C@@H]2CC[C@H](n3ccc(=O)[nH]c3=O)O2)[C@H](O)[C@@H]1O,–,–,–,–,–,–,–,–,–,–,–,–,–,–,120 µM
CNC[C@H]1O[C@@H](OC[C@H]2O[C@@H](n3ccc(=O)[nH]c3=O)[C@H](O)[C@@H]2O)[C@H](O)[C@@H]1O,–,–,–,–,–,–,–,–,–,–,–,–,–,–,45 µM
CCCCCCNC[C@H]1O[C@@H](OC[C@H]2O[C@@H](n3ccc(=O)[nH]c3=O)[C@H](O)[C@@H]2O)[C@H](O)[C@@H]1O,–,–,–,–,–,–,–,–,–,–,–,–,–,–,130 µM
CCCCCCCCCCCCCCCC(=O)O[C@H]1CN(C)[C@@H]([C@H](O)[C@H]2O[C@@H](n3ccc(=O)[nH]c3=O)[C@H](O)[C@@H]2O)C(=O)N(C)[C@@H]1C(=O)O,–,–,–,–,–,–,–,–,–,–,–,–,> 100 µg/mL,–,–
C[N+](C)(C)C[C@H]1O[C@@H](OC[C@H]2O[C@@H](n3ccc(=O)[nH]c3=O)[C@H](O)[C@@H]2O)[C@H](O)[C@@H]1O,–,–,–,–,–,–,–,–,–,–,–,–,–,–,> 1000 µM

SMILES,MIC [1],MIC [2],MIC [3],MIC [4],MIC [5],MIC [6],MIC [7],MIC [8],MIC [9],MIC [10],MIC [11],MIC [12],MIC50 [13],MIC [14],IC50 [13]
CCCCCCCC/C=C/CCCCCCCCNC(=O)C1=CCN(C)[C@@H]([C@H](O[C@@H]2O[C@H](CN)[C@@H](O)[C@H]2O)[C@H]2O[C@@H](n3ccc(=O)[nH]c3=O)[C@H](O)[C@@H]2O)C(=O)N1C,6.25 µg/mL,3.13 µg/mL,1.56 µg/mL,0.78 µg/mL,1.56 µg/mL,3.13 µg/mL,> 100 µg/mL,1.56 µg/mL,0.78 µg/mL,6.25 µg/mL,6.25 µg/mL,1.56 µg/mL,–,> 100 µg/mL,–
NC[C@H]1O[C@@H](OC[C@H]2O[C@@H](n3ccc(=O)[nH]c3=O)[C@H](O)[C@@H]2O)C[C@@H]1O,–,–,–,–,–,–,–,–,–,–,–,–,–,–,115 µM
CCc1ccc(NC(=O)C2=CCN(C)[C@@H]([C@H](O[C@@H]3O[C@H](CN)[C@@H](O)[C@H]3O)[C@H]3O[C@@H](n4ccc(=O)[nH]c4=O)[C@H](O)[C@@H]3O)C(=O)N2C)cc1,> 100 µg/mL,3.13 µg/mL,> 100 µg/mL,> 100 µg/mL,> 100 µg/mL,6.25 µg/mL,–,12.5 µg/mL,–,100 µg/mL,> 100 µg/mL,> 100 µg/mL,–,–,–
N/C=N/C[C@H]1O[C@@H](OC[C@H]2O[C@@H](n3ccc(=O)[nH]c3=O)[C@H](O)[C@@H]2O)[C@H](O)[C@@H]1O,–,–,–,–,–,–,–,–,–,–,–,–,–,–,30 µM
C=CCCCCCCCCCOC(=O)C1=CCN(C)[C@@H]([C@H](O[C@@H]2O[C@H](CN)[C@@H](O)[C@H]2O)[C@H]2O[C@@H](n3ccc(=O)[nH]c3=O)[C@H](O)[C@@H]2O)C(=O)N1C,1.56 µg/mL,12.5 µg/mL,25 µg/mL,6.25 µg/mL,12.5 µg/mL,12.5 µg/mL,–,50 µg/mL,> 100 µg/mL,12.5 µg/mL,> 100 µg/mL,50 µg/mL,–,–,–
O=CNC[C@H]1O[C@@H](OC[C@H]2O[C@@H](n3ccc(=O)[nH]c3=O)[C@H](O)[C@@H]2O)[C@H](O)[C@@H]1O,–,–,–,–,–,–,–,–,–,–,–,–,–,–,> 1000 µM
CCCCCCCCCCCCCCCCCCCCNC(=O)C1=CCN(C)[C@@H]([C@H](O[C@@H]2O[C@H](CN)[C@@H](O)[C@H]2O)[C@H]2O[C@@H](n3ccc(=O)[nH]c3=O)[C@H](O)[C@@H]2O)C(=O)N1C,> 100 µg/mL,1.56 µg/mL,6.25 µg/mL,50 µg/mL,> 100 µg/mL,1.56 µg/mL,–,1.56 µg/mL,–,25 µg/mL,> 100 µg/mL,12.5 µg/mL,–,–,–
CC(=O)NC[C@H]1O[C@@H](OC[C@H]2O[C@@H](n3ccc(=O)[nH]c3=O)[C@H](O)[C@@H]2O)[C@H](O)[C@@H]1O,–,–,–,–,–,–,–,–,–,–,–,–,–,–,> 1000 µM
NC[C@@H]1C[C@@H](O)[C@H](OC[C@H]2O[C@@H](n3ccc(=O)[nH]c3=O)[C@H](O)[C@@H]2O)O1,–,–,–,–,–,–,–,–,–,–,–,–,–,–,> 1000 µM
N=C(N)NC[C@H]1O[C@@H](OC[C@H]2O[C@@H](n3ccc(=O)[nH]c3=O)[C@H](O)[C@@H]2O)[C@H](O)[C@@H]1O,–,–,–,–,–,–,–,–,–,–,–,–,–,–,25 µM
CC/C=C/CCCCCCCCCCOC(=O)C1=CCN(C)[C@@H]([C@H](O[C@@H]2O[C@H](CN)[C@@H](O)[C@H]2O)[C@H]2O[C@@H](n3ccc(=O)[nH]c3=O)[C@H](O)[C@@H]2O)C(=O)N1C,0.78 µg/mL,6.25 µg/mL,6.25 µg/mL,6.25 µg/mL,12.5 µg/mL,12.5 µg/mL,–,12.5 µg/mL,25 µg/mL,25 µg/mL,> 100 µg/mL,25 µg/mL,–,–,–
CCCCOc1ccc(NC(=O)C2=CCN(C)[C@@H]([C@H](O[C@@H]3O[C@H](CN)[C@@H](O)[C@H]3O)[C@H]3O[C@@H](n4ccc(=O)[nH]c4=O)[C@H](O)[C@@H]3O)C(=O)N2C)cc1,> 100 µg/mL,3.13 µg/mL,25 µg/mL,0.78 µg/mL,0.78 µg/mL,1.56 µg/mL,> 100 µg/mL,> 100 µg/mL,3.13 µg/mL,3.13 µg/mL,> 100 µg/mL,100 µg/mL,–,> 100 µg/mL,–
CCCCCCCCCCCCCOC(=O)C1=CCN(C)[C@@H]([C@H](O[C@@H]2O[C@H](CN)[C@@H](O)[C@H]2O)[C@H]2O[C@@H](n3ccc(=O)[nH]c3=O)[C@H](O)[C@@H]2O)C(=O)N1C,12.5 µg/mL,50 µg/mL,6.25 µg/mL,12.5 µg/mL,12.5 µg/mL,6.25 µg/mL,25 µg/mL,25 µg/mL,> 100 µg/mL,3.13 µg/mL,0.78 µg/mL,3.13 µg/mL,–,–,–
CCCCCCCCCCCCCCCCCCCCCNC(=O)C1=CCN(C)[C@@H]([C@H](O[C@@H]2O[C@H](CN)[C@@H](O)[C@H]2O)[C@H]2O[C@@H](n3ccc(=O)[nH]c3=O)[C@H](O)[C@@H]2O)C(=O)N1C,1.56 µg/mL,0.78 µg/mL,6.25 µg/mL,> 100 µg/mL,> 100 µg/mL,1.56 µg/mL,–,12.5 µg/mL,> 100 µg/mL,50 µg/mL,> 100 µg/mL,12.5 µg/mL,–,–,–
CCCCCCCCCCOC(=O)C1=CCN(C)[C@@H]([C@H](O[C@@H]2O[C@H](CN)[C@@H](O)[C@H]2O)[C@H]2O[C@@H](n3ccc(=O)[nH]c3=O)[C@H](O)[C@@H]2O)C(=O)N1C,> 100 µg/mL,12.5 µg/mL,50 µg/mL,12.5 µg/mL,50 µg/mL,12.5 µg/mL,–,> 100 µg/mL,–,12.5 µg/mL,–,0.78 µg/mL,–,–,–
CCCCCCCOc1ccc(NC(=O)C2=CCN(C)[C@@H]([C@H](O[C@@H]3O[C@H](CN)[C@@H](O)[C@H]3O)[C@H]3O[C@@H](n4ccc(=O)[nH]c4=O)[C@H](O)[C@@H]3O)C(=O)N2C)cc1,25 µg/mL,0.78 µg/mL,0.78 µg/mL,0.2 µg/mL,0.1 µg/mL,0.78 µg/mL,50 µg/mL,3.13 µg/mL,< 0.2 µg/mL,0.78 µg/mL,25 µg/mL,6.25 µg/mL,–,3.13 µg/mL,–
